Numbers after ± are expanded uncertainties.
Experiments:
[1] = xn = mol fraction of the nth substance listed; details: 101 kPa, Liquid; for viscosity: Capillary tube (Ostwald / Ubbelohde) method; for mass density: Vibrating tube method
[2] = excess molar enthalpy (molar enthalpy of mixing); xn = mol fraction of the nth substance listed; details: 303.15 K, 101 kPa, Liquid, Calvet calorimetry

CCOC(=O)OCC [diethyl carbonate] + CCCO
[1]
Details | mass density [kg/m3] | viscosity [mPa·s]
288.15 K, x1 = 0.05124 | 821.17 ± 0.12 | 2.135 ± 0.021
288.15 K, x1 = 0.07262 | 826.61 ± 0.12 | 2.007 ± 0.019
288.15 K, x1 = 0.1063 | 834.89 ± 0.11 | 1.833 ± 0.018
288.15 K, x1 = 0.1511 | 845.43 ± 0.11 | 1.638 ± 0.016
288.15 K, x1 = 0.2122 | 858.98 ± 0.1 | 1.459 ± 0.014
288.15 K, x1 = 0.2638 | 869.76 ± 0.1 | 1.33 ± 0.013
288.15 K, x1 = 0.31 | 878.92 ± 0.1 | 1.248 ± 0.012
288.15 K, x1 = 0.4016 | 895.92 ± 0.09 | 1.115 ± 0.011
288.15 K, x1 = 0.5147 | 915.01 ± 0.09 | 1 ± 0.01
288.15 K, x1 = 0.5916 | 926.96 ± 0.09 | 0.947 ± 0.009
288.15 K, x1 = 0.5994 | 928.13 ± 0.09 | 0.937 ± 0.009
288.15 K, x1 = 0.6906 | 941.32 ± 0.08 | 0.905 ± 0.009
288.15 K, x1 = 0.7887 | 954.53 ± 0.08 | 0.871 ± 0.009
288.15 K, x1 = 0.8694 | 964.81 ± 0.08 | 0.859 ± 0.009
288.15 K, x1 = 0.9428 | 973.71 ± 0.08 | 0.865 ± 0.009
293.15 K, x1 = 0.04957 | 816.57 ± 0.12 | 1.906 ± 0.018
293.15 K, x1 = 0.1001 | 829.1 ± 0.12 | 1.657 ± 0.016
293.15 K, x1 = 0.2101 | 853.96 ± 0.11 | 1.315 ± 0.013
293.15 K, x1 = 0.3074 | 873.57 ± 0.1 | 1.132 ± 0.011
293.15 K, x1 = 0.4038 | 891.34 ± 0.1 | 1.01 ± 0.01
293.15 K, x1 = 0.5097 | 909.09 ± 0.09 | 0.92 ± 0.009
293.15 K, x1 = 0.6002 | 923.04 ± 0.09 | 0.868 ± 0.009
293.15 K, x1 = 0.6963 | 936.76 ± 0.08 | 0.829 ± 0.008
293.15 K, x1 = 0.8059 | 951.25 ± 0.08 | 0.804 ± 0.008
293.15 K, x1 = 0.8817 | 960.76 ± 0.08 | 0.796 ± 0.008
293.15 K, x1 = 0.9433 | 968.14 ± 0.08 | 0.796 ± 0.008
303.15 K, x1 = 0.05148 | 808.69 ± 0.12 | 1.495 ± 0.015
303.15 K, x1 = 0.1008 | 820.63 ± 0.12 | 1.329 ± 0.013
303.15 K, x1 = 0.2044 | 843.53 ± 0.11 | 1.087 ± 0.011
303.15 K, x1 = 0.3161 | 865.57 ± 0.1 | 0.93 ± 0.009
303.15 K, x1 = 0.4048 | 881.45 ± 0.1 | 0.847 ± 0.008
303.15 K, x1 = 0.4459 | 888.41 ± 0.1 | 0.818 ± 0.008
303.15 K, x1 = 0.6 | 912.35 ± 0.09 | 0.743 ± 0.007
303.15 K, x1 = 0.6892 | 924.91 ± 0.09 | 0.715 ± 0.007
303.15 K, x1 = 0.792 | 938.39 ± 0.08 | 0.697 ± 0.007
303.15 K, x1 = 0.8809 | 949.35 ± 0.08 | 0.692 ± 0.007
303.15 K, x1 = 0.9364 | 955.95 ± 0.08 | 0.692 ± 0.007
313.15 K, x1 = 0.04668 | 798.89 ± 0.13 | 1.214 ± 0.012
313.15 K, x1 = 0.1008 | 811.63 ± 0.12 | 1.071 ± 0.011
313.15 K, x1 = 0.2119 | 835.52 ± 0.12 | 0.885 ± 0.009
313.15 K, x1 = 0.3075 | 854.04 ± 0.11 | 0.783 ± 0.008
313.15 K, x1 = 0.4133 | 872.66 ± 0.1 | 0.71 ± 0.007
313.15 K, x1 = 0.5019 | 886.95 ± 0.1 | 0.668 ± 0.007
313.15 K, x1 = 0.5998 | 901.56 ± 0.1 | 0.637 ± 0.006
313.15 K, x1 = 0.6913 | 914.21 ± 0.09 | 0.618 ± 0.006
313.15 K, x1 = 0.7902 | 926.98 ± 0.09 | 0.607 ± 0.006
313.15 K, x1 = 0.8456 | 933.82 ± 0.09 | 0.608 ± 0.006
313.15 K, x1 = 0.8699 | 936.73 ± 0.09 | 0.606 ± 0.006
313.15 K, x1 = 0.8903 | 939.21 ± 0.08 | 0.607 ± 0.006
313.15 K, x1 = 0.9488 | 946.12 ± 0.08 | 0.61 ± 0.006

[2]
Details | excess molar enthalpy [kcal/mol]
x1 = 0.05945 | 0.103 ± 0.00227
x1 = 0.1227 | 0.196 ± 0.0043
x1 = 0.1956 | 0.281 ± 0.00598
x1 = 0.2498 | 0.328 ± 0.00693
x1 = 0.2677 | 0.344 ± 0.00741
x1 = 0.3018 | 0.371 ± 0.00789
x1 = 0.3762 | 0.42 ± 0.00884
x1 = 0.4569 | 0.441 ± 0.00932
x1 = 0.4906 | 0.446 ± 0.00956
x1 = 0.5642 | 0.451 ± 0.00956
x1 = 0.6182 | 0.442 ± 0.00956
x1 = 0.6932 | 0.417 ± 0.00884
x1 = 0.7453 | 0.38 ± 0.00813
x1 = 0.824 | 0.312 ± 0.00669
x1 = 0.872 | 0.248 ± 0.00526
x1 = 0.9168 | 0.174 ± 0.00382

CCOC(=O)OCC [diethyl carbonate] + CCO
[1]
Details | mass density [kg/m3] | viscosity [mPa·s]
288.15 K, x1 = 0.05544 | 813.88 ± 0.11 | 1.181 ± 0.011
288.15 K, x1 = 0.1 | 828.53 ± 0.11 | 1.111 ± 0.011
288.15 K, x1 = 0.197 | 856.33 ± 0.1 | 0.996 ± 0.01
288.15 K, x1 = 0.2998 | 881.02 ± 0.09 | 0.917 ± 0.009
288.15 K, x1 = 0.4062 | 902.55 ± 0.09 | 0.864 ± 0.009
288.15 K, x1 = 0.5039 | 919.48 ± 0.08 | 0.838 ± 0.008
288.15 K, x1 = 0.613 | 935.91 ± 0.08 | 0.821 ± 0.008
288.15 K, x1 = 0.6939 | 946.73 ± 0.08 | 0.815 ± 0.008
288.15 K, x1 = 0.7942 | 958.83 ± 0.08 | 0.819 ± 0.008
288.15 K, x1 = 0.8992 | 970.29 ± 0.07 | 0.834 ± 0.008
288.15 K, x1 = 0.9744 | 977.89 ± 0.07 | 0.856 ± 0.008
293.15 K, x1 = 0.05208 | 808.2 ± 0.12 | 1.115 ± 0.011
293.15 K, x1 = 0.09645 | 822.76 ± 0.11 | 1.045 ± 0.01
293.15 K, x1 = 0.1983 | 851.8 ± 0.1 | 0.93 ± 0.009
293.15 K, x1 = 0.2931 | 874.46 ± 0.1 | 0.867 ± 0.009
293.15 K, x1 = 0.4089 | 897.78 ± 0.09 | 0.818 ± 0.008
293.15 K, x1 = 0.4945 | 912.58 ± 0.09 | 0.794 ± 0.008
293.15 K, x1 = 0.6111 | 930.21 ± 0.08 | 0.777 ± 0.008
293.15 K, x1 = 0.6787 | 939.26 ± 0.08 | 0.771 ± 0.008
293.15 K, x1 = 0.7692 | 950.39 ± 0.08 | 0.77 ± 0.008
293.15 K, x1 = 0.8767 | 962.34 ± 0.08 | 0.779 ± 0.008
293.15 K, x1 = 0.9444 | 969.33 ± 0.08 | 0.791 ± 0.008
303.15 K, x1 = 0.04589 | 797.14 ± 0.12 | 0.937 ± 0.009
303.15 K, x1 = 0.09693 | 813.63 ± 0.11 | 0.88 ± 0.009
303.15 K, x1 = 0.1943 | 840.98 ± 0.11 | 0.799 ± 0.008
303.15 K, x1 = 0.2843 | 862.32 ± 0.1 | 0.747 ± 0.007
303.15 K, x1 = 0.4098 | 887.33 ± 0.09 | 0.703 ± 0.007
303.15 K, x1 = 0.5128 | 904.7 ± 0.09 | 0.686 ± 0.007
303.15 K, x1 = 0.6176 | 920.01 ± 0.09 | 0.678 ± 0.007
303.15 K, x1 = 0.6907 | 929.62 ± 0.08 | 0.675 ± 0.007
303.15 K, x1 = 0.7896 | 941.46 ± 0.08 | 0.675 ± 0.007
303.15 K, x1 = 0.8863 | 951.96 ± 0.08 | 0.681 ± 0.007
303.15 K, x1 = 0.9676 | 960.23 ± 0.08 | 0.694 ± 0.007
313.15 K, x1 = 0.04956 | 789.32 ± 0.12 | 0.761 ± 0.008
313.15 K, x1 = 0.09649 | 804.16 ± 0.12 | 0.715 ± 0.007
313.15 K, x1 = 0.207 | 834.28 ± 0.11 | 0.647 ± 0.007
313.15 K, x1 = 0.2847 | 852.21 ± 0.11 | 0.618 ± 0.006
313.15 K, x1 = 0.3982 | 874.66 ± 0.1 | 0.591 ± 0.006
313.15 K, x1 = 0.5049 | 892.56 ± 0.1 | 0.578 ± 0.006
313.15 K, x1 = 0.6079 | 907.66 ± 0.09 | 0.574 ± 0.006
313.15 K, x1 = 0.6227 | 909.67 ± 0.09 | 0.573 ± 0.006
313.15 K, x1 = 0.6895 | 918.3 ± 0.09 | 0.575 ± 0.006
313.15 K, x1 = 0.7826 | 929.4 ± 0.09 | 0.58 ± 0.006
313.15 K, x1 = 0.8924 | 941.3 ± 0.08 | 0.594 ± 0.006
313.15 K, x1 = 0.9563 | 947.79 ± 0.08 | 0.606 ± 0.006

[2]
Details | excess molar enthalpy [kcal/mol]
x1 = 0.06432 | 0.0943 ± 0.00206
x1 = 0.1113 | 0.152 ± 0.00335
x1 = 0.1833 | 0.226 ± 0.00478
x1 = 0.2439 | 0.276 ± 0.00598
x1 = 0.3034 | 0.317 ± 0.00669
x1 = 0.3739 | 0.356 ± 0.00765
x1 = 0.4258 | 0.378 ± 0.00813
x1 = 0.5066 | 0.395 ± 0.00837
x1 = 0.5445 | 0.395 ± 0.00837
x1 = 0.64 | 0.39 ± 0.00837
x1 = 0.7134 | 0.366 ± 0.00789
x1 = 0.7663 | 0.335 ± 0.00717
x1 = 0.8243 | 0.285 ± 0.00621
x1 = 0.8998 | 0.189 ± 0.00406
x1 = 0.9557 | 0.0946 ± 0.00208
